What is called IC50 is the midpoint of a concentration-inhibition curve. The term inhibition denotes the relative decrease from the control value, in per cent.

This is an account of results in publication PMC10457740, “Design, Synthesis and Biological Evaluation of Novel PEG-Rakicidin B1 Hybrid as Clostridium difficile (CD) Targeted Anti-Bacterial Agent” (Molecules, 2023).

Each structure is given as a SMILES string. Counter-ions that a name gives are not always drawn. Like-named read-outs stand apart in the source and are kept apart here.

In test [1] the test system is C. difficile infection (CDI). The note with it: cited from earlier work; for recurrence of CDI: patients, after treatment; for response in patients: treatment of mild to moderate episodes of CDI.
Another test concerns CD strain ATCC 43255. Kind of test: CDI mouse model (survival, recurrence, weight, clinical scores).
The next test has as its system HCT-8 cells. Kind of test: In vitro cytotoxicity, CCK-8 assay, HCT-8. The note with it: Homo sapiens, HCT-8, 48 h. Format: cell-based.
A further test relates to PANC-1. Kind of test: In vitro cytotoxicity, CCK-8 assay, PANC-1. Format: cell-based. To be noted: Homo sapiens, PANC-1, 48 h.
For a further test, the system named is Caco-2. The experiment in a line: In vitro cytotoxicity, CCK-8 assay, Caco-2. The format is cell-based. To be noted: Homo sapiens, Caco-2, 48 h. (In general: Tetrazolium dyes change colour on reduction, which living cells bring about.)
For test [2], the system named is PANC-1 cells (zebrafish pancreatic cancer transplant model). The experiment in a line: In vivo cytotoxicity, zebrafish pancreatic cancer transplant model. To be noted: 48 h, n = 10.

Turning to `CN[C@H](CC(C)C)C(=O)N[C@H]1C(=O)N[C@@H](CC(N)=O)C(=O)N[C@H]2C(=O)N[C@H]3C(=O)N[C@H](C(=O)N[C@H](C(=O)O)c4cc(O)cc(O)c4-c4cc3ccc4O)[C@H](O)c3ccc(c(Cl)c3)Oc3cc2cc(c3O[C@@H]2O[C@H](CO)[C@@H](O)[C@H](O)[C@H]2O[C@H]2C[C@](C)(N)[C@H](O)[C@H](C)O2)Oc2ccc(cc2Cl)[C@H]1O` [vancomycin], in test [1], the “recurrence of CDI” value is 25–30% and the response in patients entry was “approximately 90%”. Besides, the “mortality rate after stopping treatment (recurrence of infection)” value with CD strain ATCC 43255 (C57BL/6 mice, vancomycin 20 mg/kg once a day for seven days, monitored until day 21) amounted to 40%. Further, in the test on CD strain ATCC 43255 (infected C57BL/6 mice, after seven-day treatment, until day 21), the “body weight changes and clinical scores after stopping treatment” value is “significant weight loss and a sharp increase in clinical scores”. In addition, in the test on CD strain ATCC 43255 (infected C57BL/6 mice, during seven-day treatment), the “body weight changes and clinical scores while receiving treatment” value is given as “did not experience weight loss or an increase in clinical scores”. Further, the “recurrence of infection after treatment ended” value in the test on CD strain ATCC 43255 (infected C57BL/6 mice, monitored until day 21) was “recurrence of infection is observed”.

With `C=C1/C=C/C(=O)N(C)CC(=O)N[C@@H]([C@H](O)C(N)=O)C(=O)O[C@@H]([C@H](C)CCCCCCCCCCCC(C)CC)[C@H](C)C(=O)N1` (stereo partly shown) [Rakicidin B1], the IC50 with HCT-8 cells (read-out: IC50 HCT-8, hypoxia (5% CO2, 95% N2), 48 h, CCK-8) came out at 430 nM; in the test with HCT-8 cells (read-out: IC50 HCT-8, normoxia, 48 h drug exposure, CCK-8), 519 nM; with PANC-1 (read-out: IC50 PANC-1, hypoxia (5% CO2, 95% N2), 48 h, CCK-8), 486 nM; in the test with PANC-1 (read-out: IC50 PANC-1, normoxia, 48 h drug exposure, CCK-8), 815 nM; with Caco-2 (read-out: IC50 Caco-2, hypoxia (5% CO2, 95% N2), 48 h, CCK-8) it was 457 nM; in the test with Caco-2 (read-out: IC50 Caco-2, normoxia, 48 h drug exposure, CCK-8), 586 nM. The “Fluorescence Intensity (S, Mean ± SE)” value in test [2] (22.4 nM in water) was 773,141 ± 49,850; in test [2] (67.2 nM in water), 662,225 ± 41,743; in test [2] (201.5 nM in water), 527,824 ± 34,172. Also, in test [2] (Danio rerio, PANC-1, 22.4 nM in water, read-out: Inhibition Rate (%)), the inhibition at 0.0224 µM stood at 17%. Besides, the inhibition at 0.0672 µM in test [2] (Danio rerio, PANC-1, 67.2 nM in water, read-out: Inhibition Rate (%)) amounted to 29%. Besides, in test [2] (Danio rerio, PANC-1, 201.5 nM in water, read-out: Inhibition Rate (%)), the inhibition at 0.2015 µM is 43%.

As for `Nc1ccn([C@@H]2O[C@H](CO)[C@@H](O)C2(F)F)c(=O)n1` [gemcitabine hydrochloride], the “Fluorescence Intensity (S, Mean ± SE)” value in test [2] (66.7 µM in water) was 540,311 ± 59,245 ^1. The inhibition at 66.7 µM in test [2] (Danio rerio, PANC-1, 66.7 µM in water, read-out: Inhibition Rate (%)) worked out at 42%.

Take `Cc1ncc([N+](=O)[O-])n1CCO` [metronidazole]: in test [1], the “recurrence of CDI” value was 25–30% and the response in patients result is recorded as “approximately 90%”.
